Source: patent publication US4196205A, “3-Acetoxymethyl-7-(iminoacetamido)-cephalosporanic acid derivatives” (priority 1976, dated 1980)
≈ marks a conversion by molar mass, not a printed value. Where two headings read alike, the source gives them in different places.

Key:
Assay in all cases: MIC, dilution in liquid medium
Assay type in all cases: cell-based
Providencia Du 48 = conditions: Providencia
Protocol: (§1) The method used was a dilution of a liquid medium where a series of tubes received the same quantity of a sterile nutritive media and increasing doses of the test compounds were placed therein. Then each tube was seeded with a bacterial strain and was incubated for 24 to 48 hours at 37° C. in an oven. The increasing inhibition was determined by transillumination to determine the minimum inhibiting concentration (MIC in […]) and the results are reported in the following Tables.

[1] = tested on: Bacillus subtilis ATCC 6 633; conditions: Bacillus subtilis
Protocol: as §1

[2] = tested on: Escherichia Coli Resistant Gentamicine, Tobramycine R 55 123 D; conditions: Escherichia coli, read-out: M.I.C.
Protocol: as §1

[3] = tested on: Staphylococcus aureus exp. n° 54 146; conditions: Staphylococcus aureus
Protocol: as §1

[4] = tested on: Streptococcus pyogenes A 561; conditions: Streptococcus pyogenes, read-out: M.I.C.
Protocol: as §1

[5] = tested on: Staphylococcus aureus ATCC 5 638 Pen-Sensible = UC 1061
Protocol: as §1

[6] = tested on: Klebsiella pneumoniae Exp. 52 145; conditions: Klebsiella pneumoniae
Protocol: as §1

[7] = tested on: Staphylococcus aureus UC 1 128 Pen-Resistant; conditions: Staphylococcus aureus
Protocol: as §1

Enterobacter cloacae 681 = tested on: Enterobacter cloacae 681
Protocol: as §1

[8] = tested on: Streptococcus faecalis 5 432
Protocol: as §1

[9] = tested on: Streptococcus faecalis 99 F 74; conditions: Enterococcus faecalis
Protocol: as §1

[10] = tested on: Escherichia Coli Resistant Tetracycline ATCC 11 303 = UC 1261; conditions: Escherichia coli
Protocol: as §1

[11] = tested on: Escherichia Coli Sensible Tetracycline ATCC 9 637 = 1020; conditions: Escherichia coli
Protocol: as §1

[12] = tested on: Escherichia Coli Exp. TO26 B6; conditions: Escherichia coli
Protocol: as §1

[13] = tested on: Proteus mirabilis (indol-) A 235; conditions: Proteus mirabilis, read-out: M.I.C.
Protocol: as §1

[14] = tested on: Salmonella typhimurium 420; conditions: Salmonella enterica, TYPHIMURIUM
Protocol: as §1

[15] = tested on: Klebsiella pneumoniae 2 536 Resistant Gentamicine; conditions: Klebsiella pneumoniae
Protocol: as §1

[16] = tested on: Serratia Resistant Gentamicine 2 532
Protocol: as §1

[17] = Enterobacter cloacae, 681, 24 h
[18] = Enterococcus faecalis, 5432, 24 h, 24 H
[19] = Enterococcus faecalis, 5432, 48 h, 48 H

Structure (SMILES): CC(=O)OCC1=C(C(=O)O)N2C(=O)C(NC(=O)/C(=N\O)c3csc(N)n3)C2SC1 (stereo not drawn) [Example 28, syn isomer of 7-[2-(2-amino-4-thiazolyl)-2-hydroxyiminoacetamido]-3-acetoxymethyl-ceph-3-eme-4-carboxylic acid]
- MIC (Providencia Du 48; DU48, 24 h, 24 H): 2 µg/mL (≈ 4.53 µM)
- MIC (Providencia Du 48; DU48, 48 h, 48 H): 2 µg/mL (≈ 4.53 µM)
- MIC ([1]; ATCC6, 24 h, 24 H, read-out: M.I.C.): 0.5 µg/mL (≈ 1.13 µM)
- MIC ([1]; ATCC6, 48 h, 48 H): 1 µg/mL (≈ 2.27 µM)
- MIC ([2]; 24 h): 0.2 µg/mL (≈ 0.453 µM)
- MIC ([2]; 48 h): 0.2 µg/mL (≈ 0.453 µM)
- MIC ([3]; 24 h): 1 µg/mL (≈ 2.27 µM)
- MIC ([3]; 48 h): 1 µg/mL (≈ 2.27 µM)
- MIC ([4]; A561, 24 h, 24 H): 0.02 µg/mL (≈ 0.0453 µM)
- MIC ([4]; A561, 48 h, 48 H): 0.02 µg/mL (≈ 0.0453 µM)
- MIC ([5]; 24 h, read-out: M.I.C.): 0.5 µg/mL (≈ 1.13 µM)
- MIC ([5]; 48 h, read-out: M.I.C.): 0.5 µg/mL (≈ 1.13 µM)
- MIC ([6]; EXP.52145, 24 h, 24 H): 0.05 µg/mL (≈ 0.113 µM)
- MIC ([6]; EXP.52145, 48 h, 48 H): 0.1 µg/mL (≈ 0.227 µM)
- MIC ([7]; UC1, 24 h, 24 H): 1 µg/mL (≈ 2.27 µM)
- MIC ([7]; UC1, 48 h, 48 H): 1 µg/mL (≈ 2.27 µM)
- MIC (Enterobacter cloacae 681; [17]): 5 µg/mL (≈ 11.3 µM)
- MIC (Enterobacter cloacae 681; Enterobacter cloacae, 681, 48 h, read-out: M.I.C.): 10 µg/mL (≈ 22.7 µM)
- MIC [8, 18]: 5 µg/mL (≈ 11.3 µM)
- MIC [8, 19]: 5 µg/mL (≈ 11.3 µM)
- MIC ([9]; 99F74, 24 h, read-out: M.I.C.): 10 µg/mL (≈ 22.7 µM)
- MIC ([9]; 99F74, 48 h, 48 H): 40 µg/mL (≈ 90.6 µM)
- MIC ([10]; 24 h): 0.1 µg/mL (≈ 0.227 µM)
- MIC ([10]; 48 h): 0.1 µg/mL (≈ 0.227 µM)
- MIC ([11]; ATCC9, 24 h, 24 H): 0.05 µg/mL (≈ 0.113 µM)
- MIC ([11]; ATCC9, 48 h, 48 H): 0.1 µg/mL (≈ 0.227 µM)
- MIC ([12]; 24 h): 0.05 µg/mL (≈ 0.113 µM)
- MIC ([12]; 48 h): 0.1 µg/mL (≈ 0.227 µM)
- MIC ([13]; 24 h): 0.1 µg/mL (≈ 0.227 µM)
- MIC ([13]; 48 h): 0.2 µg/mL (≈ 0.453 µM)
- MIC ([14]; 24 h, read-out: M.I.C.): 0.1 µg/mL (≈ 0.227 µM)
- MIC ([14]; 48 h): 0.1 µg/mL (≈ 0.227 µM)
- MIC ([15]; 24 h, read-out: M.I.C.): 0.2 µg/mL (≈ 0.453 µM)
- MIC ([15]; 48 h, read-out: M.I.C.): 0.5 µg/mL (≈ 1.13 µM)
- MIC ([16]; 24 h): 5 µg/mL (≈ 11.3 µM)
- MIC ([16]; 48 h, read-out: M.I.C.): 10 µg/mL (≈ 22.7 µM)

Structure (SMILES): C=CO/N=C(\C(=O)NC1C(=O)N2C(C(=O)O)=C(COC(C)=O)CSC12)c1csc(N)n1 (stereo not drawn) [Product B, syn isomer of 3-acetoxymethyl-7-[2-(2-amino-4-thiazolyl)-2-vinyloxyimino-acetamido]-ceph-3-eme-4-carboxylic acid]
- MIC (Providencia Du 48; DU48, 24 h, 24 H): 2 µg/mL (≈ 4.28 µM)
- MIC (Providencia Du 48; DU48, 48 h, 48 H): 2 µg/mL (≈ 4.28 µM)
- MIC ([1]; ATCC6, 24 h, 24 H): 2 µg/mL (≈ 4.28 µM)
- MIC ([1]; ATCC6, 48 h, 48 H): 5 µg/mL (≈ 10.7 µM)
- MIC ([2]; 24 h): 0.5 µg/mL (≈ 1.07 µM)
- MIC ([2]; 48 h): 0.5 µg/mL (≈ 1.07 µM)
- MIC ([3]; 24 h): 1 µg/mL (≈ 2.14 µM)
- MIC ([3]; 48 h): 2 µg/mL (≈ 4.28 µM)
- MIC ([4]; A561, 24 h, 24 H): ≤ 0.02 µg/mL
- MIC ([4]; A561, 48 h, 48 H): ≤ 0.02 µg/mL
- MIC ([5]; 24 h): 1 µg/mL (≈ 2.14 µM)
- MIC ([5]; 48 h): 1 µg/mL (≈ 2.14 µM)
- MIC ([6]; EXP.52145, 24 h, 24 H, read-out: M.I.C.): ≤ 0.02 µg/mL
- MIC ([6]; EXP.52145, 48 h, 48 H, read-out: M.I.C.): ≤ 0.02 µg/mL
- MIC ([7]; UC1, 24 h, 24 H): 1 µg/mL (≈ 2.14 µM)
- MIC ([7]; UC1, 48 h, 48 H): 1 µg/mL (≈ 2.14 µM)
- MIC (Enterobacter cloacae 681; [17]): 3 µg/mL (≈ 6.42 µM)
- MIC (Enterobacter cloacae 681; Enterobacter cloacae, 681, 48 h): 5 µg/mL (≈ 10.7 µM)
- MIC [8, 18]: 3 µg/mL (≈ 6.42 µM)
- MIC [8, 19]: 5 µg/mL (≈ 10.7 µM)
- MIC ([9]; 99F74, 24 h, 24 H): 5 µg/mL (≈ 10.7 µM)
- MIC ([9]; 99F74, 48 h, read-out: M.I.C.): 10 µg/mL (≈ 21.4 µM)
- MIC ([10]; 24 h, read-out: M.I.C.): 0.05 µg/mL (≈ 0.107 µM)
- MIC ([10]; 48 h, read-out: M.I.C.): 0.95 µg/mL (≈ 2.03 µM)
- MIC ([11]; ATCC9, 24 h, 24 H, read-out: M.I.C.): 0.5 µg/mL (≈ 1.07 µM)
- MIC ([11]; ATCC9, 48 h, 48 H, read-out: M.I.C.): 0.5 µg/mL (≈ 1.07 µM)
- MIC ([12]; 24 h): 0.2 µg/mL (≈ 0.428 µM)
- MIC ([12]; 48 h): 0.2 µg/mL (≈ 0.428 µM)
- MIC ([13]; 24 h): ≤ 0.02 µg/mL
- MIC ([13]; 48 h): ≤ 0.02 µg/mL
- MIC ([14]; 24 h, read-out: M.I.C.): 0.5 µg/mL (≈ 1.07 µM)
- MIC ([14]; 48 h, read-out: M.I.C.): 0.5 µg/mL (≈ 1.07 µM)
- MIC ([15]; 24 h): 1 µg/mL (≈ 2.14 µM)
- MIC ([15]; 48 h): 2 µg/mL (≈ 4.28 µM)
- MIC ([16]; 24 h): 1 µg/mL (≈ 2.14 µM)
- MIC ([16]; 48 h): 2 µg/mL (≈ 4.28 µM)
